Results on nine compounds are retold here after PubChem BioAssay (NCI).

Structures are written as SMILES.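 48-hour exposure; five concentrations; linearly interpolated endpoints. GI50 marks 50% less growth. TGI is the concentration that stops growth completely.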

Among the test systems are COLO 205 colon; HCT-116 colon; HCT-15 colon; K-562 leukemia; M14 melanoma; MDA-MB-435; NCI-H460 lung; OVCAR-3 ovarian; SW-620 colon; NCI-H226 lung.
Experiment in all cases: growth of human tumour cells (NCI), 48 h

As to `CC(C)(C)[OH+][O-].[O-]c1ccc(Cl)cc1C=Nc1ccc(Cl)cc1[O-].[O]=[V]`, the GI50 in the experiment on COLO 205 colon was 19.3 µM; in the experiment on HCT-116 colon, 21400 nM; with HCT-15 colon, 21800 nM; with K-562 leukemia, 31.5 µM; in the experiment with M14 melanoma, 13300 nM; in the experiment on MDA-MB-435 it was 14.6 µM. Besides, the GI50 in the experiment on NCI-H460 lung was 18 µM; in the experiment on OVCAR-3 ovarian, 13500 nM; in the experiment on SW-620 colon, 19600 nM. Moreover, the TGI in the experiment with COLO 205 colon was 37.6 µM; in the experiment with HCT-116 colon, 98.9 µM; with HCT-15 colon it was above 100 µM; in the experiment with K-562 leukemia it was above 100 µM; with M14 melanoma, 76.2 µM; in the experiment with MDA-MB-435, above 100 µM. Moreover, the TGI turned out to be 46.3 µM in the experiment with NCI-H460 lung, 40.5 µM in the experiment with OVCAR-3 ovarian and 41.7 µM in the experiment on SW-620 colon.

`CC(C)(C)[Si](C)(C)OCC1CCC(n2cnc3c(NC(=O)c4ccccc4)ncnc32)O1` (stereo unspecified): the TGI with COLO 205 colon was determined as 35.6 µM; in the experiment on HCT-116 colon, 33.5 µM; in the experiment on HCT-15 colon, 39.2 µM; with K-562 leukemia, 39.5 µM; with M14 melanoma, 30.3 µM; with MDA-MB-435, 29.2 µM. The TGI in the experiment with NCI-H226 lung was 34.6 µM; in the experiment on NCI-H460 lung it was 32 µM; in the experiment on OVCAR-3 ovarian it was 28 µM; in the experiment on SW-620 colon, 35 µM.

For the compound `CC(C)C[C@H](NC(=O)[C@H](Cc1ccccc1)n1ccc(N2CCCCC2)cc1=O)B(O)O`, the GI50 in the experiment with COLO 205 colon was 0.853 µM; in the experiment with HCT-116 colon it was 343 nM; with HCT-15 colon, 1610 nM; in the experiment with K-562 leukemia it was 1.08 µM; in the experiment with M14 melanoma it was 356 nM; with MDA-MB-435, 0.177 µM. For the same compound, the GI50 in the experiment with NCI-H226 lung was 0.188 µM; in the experiment with NCI-H460 lung, 3.18 µM; in the experiment on OVCAR-3 ovarian it was 327 nM; in the experiment with SW-620 colon it was 376 nM. For the same compound, the TGI in the experiment on COLO 205 colon is above 100 µM; in the experiment on HCT-116 colon, 2.55 µM; with HCT-15 colon, 22.1 µM; in the experiment with K-562 leukemia, above 100 µM; in the experiment with M14 melanoma it was 3.88 µM; in the experiment on MDA-MB-435, 0.371 µM. The TGI was 0.423 µM in the experiment with NCI-H226 lung, above 100 µM with NCI-H460 lung, 1.21 µM in the experiment on OVCAR-3 ovarian and above 100 µM with SW-620 colon.

For `Cc1ccc(Nc2nc(NCCO)c3ccccc3n2)cc1C`, the GI50 was 1.81 µM in the experiment on COLO 205 colon; 3950 nM in the experiment on HCT-116 colon; 3260 nM in the experiment with HCT-15 colon; 3.19 µM in the experiment with K-562 leukemia; 4 µM in the experiment on MDA-MB-435; 10.8 µM in the experiment with NCI-H226 lung. Further, the GI50 was 4.44 µM in the experiment with NCI-H460 lung, 11000 nM in the experiment with OVCAR-3 ovarian and 4030 nM in the experiment with SW-620 colon. Besides, the TGI in the experiment with COLO 205 colon was 3.73 µM; in the experiment on HCT-116 colon it was 14.5 µM; in the experiment with HCT-15 colon it was 13.3 µM; in the experiment on K-562 leukemia, 13 µM; in the experiment on MDA-MB-435 it was 15.9 µM; in the experiment with NCI-H226 lung it was 22.7 µM. Also, the TGI with NCI-H460 lung amounted to 16.7 µM; in the experiment on OVCAR-3 ovarian, 23 µM; in the experiment with SW-620 colon, 15.7 µM.

Consider `Cn1ccnc1C(=O)/C=C/c1ccc(CC(=O)Nc2ccc(Cl)cc2)cc1`, for which the GI50 in the experiment on COLO 205 colon was 9.44 µM; in the experiment with HCT-116 colon it was 1310 nM; with HCT-15 colon it was 999 nM; with MDA-MB-435, 9.16 µM; in the experiment with NCI-H226 lung, 7.43 µM; with NCI-H460 lung, 1.58 µM. For the same compound, the GI50 is 1030 nM with OVCAR-3 ovarian and 1250 nM in the experiment on SW-620 colon. In addition, the TGI in the experiment with COLO 205 colon, in the experiment with HCT-116 colon, in the experiment on HCT-15 colon, with MDA-MB-435, in the experiment on NCI-H226 lung and in the experiment on NCI-H460 lung was above 25 µM each time. For the same compound, the TGI with OVCAR-3 ovarian and with SW-620 colon was above 25 µM each time.

Turning to `CN(C)CCNC(=O)c1ccc(Nc2nc3ccccc3c3occc23)cc1`, the GI50 in the experiment with COLO 205 colon is 22.6 µM; with HCT-116 colon, 1660 nM; in the experiment on HCT-15 colon, 2120 nM; with K-562 leukemia, 4.29 µM; with M14 melanoma, 1700 nM; in the experiment on MDA-MB-435 it was 1.95 µM. Moreover, the GI50 in the experiment on NCI-H460 lung is 28.5 µM; with OVCAR-3 ovarian, 2400 nM; in the experiment with SW-620 colon, 5960 nM. The TGI with COLO 205 colon amounted to 59.7 µM; with HCT-116 colon, 3.02 µM; with HCT-15 colon, 4.75 µM; in the experiment with K-562 leukemia it was 17.1 µM; in the experiment with M14 melanoma, 3.15 µM; with MDA-MB-435 it was 3.94 µM. Moreover, the TGI was above 100 µM in the experiment with NCI-H460 lung, 7.87 µM with OVCAR-3 ovarian and 25.8 µM with SW-620 colon.

On to `O=C1c2ccccc2-c2c1c1ccccc1c(=O)n2Cc1ccco1`, for which the TGI in the experiment with COLO 205 colon, in the experiment on HCT-116 colon, with HCT-15 colon, in the experiment on K-562 leukemia, in the experiment on M14 melanoma and with MDA-MB-435 was above 100 µM throughout. Further, the TGI in the experiment with NCI-H226 lung, with OVCAR-3 ovarian and in the experiment on SW-620 colon was above 100 µM each time.

Regarding `CN(N=O)C(=O)Nc1c[nH]c(=O)[nH]c1=O`, the TGI in the experiment on COLO 205 colon, in the experiment with HCT-116 colon, in the experiment on HCT-15 colon, in the experiment on K-562 leukemia, in the experiment with M14 melanoma and in the experiment on MDA-MB-435 was above 100 µM throughout. In addition, the TGI in the experiment on NCI-H226 lung, in the experiment with OVCAR-3 ovarian and with SW-620 colon was above 100 µM in each case.

Regarding `Oc1c(CN2CCC(N3CCOCC3)CC2)cc(Cc2cc(CN3CCC(N4CCOCC4)CC3)c(O)c3ncccc23)c2cccnc12`, the GI50 in the experiment with COLO 205 colon was 0.596 µM; with HCT-116 colon, 383 nM; in the experiment on HCT-15 colon, 633 nM; in the experiment with M14 melanoma, 610 nM; in the experiment with MDA-MB-435, 2.01 µM; with NCI-H226 lung, 0.641 µM. In addition, the GI50 in the experiment with NCI-H460 lung is 0.471 µM; in the experiment with OVCAR-3 ovarian it was 976 nM; in the experiment with SW-620 colon, 689 nM. Also, the TGI amounted to 10.6 µM in the experiment with COLO 205 colon; 48.7 µM in the experiment on HCT-116 colon; 26.4 µM with HCT-15 colon; 17.1 µM in the experiment with M14 melanoma; 74.7 µM in the experiment on MDA-MB-435; 4.75 µM in the experiment on NCI-H226 lung. Moreover, the figures for the TGI with NCI-H460 lung, in the experiment with OVCAR-3 ovarian and in the experiment on SW-620 colon were 16.6 µM, 11.9 µM and above 100 µM, respectively.
